Seven compounds from ChEMBL document CHEMBL1150613, “New flavonol oligoglycosides and polyacylated sucroses with inhibitory effects on aldose reductase and platelet aggregation from the flowers of Prunus mume” (J Nat Prod, 2002) can be followed below.

Some results are limits rather than exact numbers.

Assay [1] concerns the target Aldo-keto reductase family 1 member B1 (Rattus norvegicus, UniProt P07943). As to the kind of experiment: Inhibition of aldose reductase in rat lens homogenates by fluorophotometer.
The target of assay [2] is Aldo-keto reductase family 1 member B1 (Rattus norvegicus) (UniProt P07943). Put plainly: Inhibition of aldose reductase in rat lens homogenates at 30 uM by fluorophotometry.
Assay [3] concerns Platelet. Put plainly: Inhibition of thrombin-induced platelet aggregation in washed rabbit platelets at 0.1 mM treated 2 mins before thrombin challenge by aggregometer. The format is functional. The conditions noted are these: Oryctolagus cuniculus.
For assay [4], the system named is Platelet. Put plainly: Inhibition of thrombin-induced platelet aggregation in washed rabbit platelets at 0.5 mM treated 2 mins before thrombin challenge by aggregometer. It is filed as functional. The conditions noted are these: Oryctolagus cuniculus.
Assay [5] relates to Platelet. As to the kind of experiment: Inhibition of thrombin-induced platelet aggregation in washed rabbit platelets at 1.0 mM treated 2 mins before thrombin challenge by aggregometer. The format is functional. The conditions noted are these: Oryctolagus cuniculus.

As for `C[C@@H]1O[C@@H](OC[C@H]2O[C@@H](Oc3c(-c4ccc(O)c(O)c4)oc4cc(O)cc(O)c4c3=O)[C@H](O)[C@@H](O)[C@@H]2O)[C@H](O)[C@H](O)[C@H]1O` [RUTIN], half-maximal inhibition in assay [1] (IC50) was put at 13 µM.
Regarding `C[C@@H]1O[C@@H](OC[C@H]2O[C@@H](Oc3c(-c4ccc(O)c(O)c4)oc4cc(O)cc(O)c4c3=O)[C@H](O[C@@H]3O[C@@H](C)[C@H](O)[C@@H](O)[C@H]3O)[C@@H](O)[C@H]2O)[C@H](O)[C@H](O)[C@H]1O`, the IC50 in assay [1] is > 30 µM. In assay [2], this compound registered an inhibition of 40%.
In turn, `CC(=O)O[C@H]1[C@H](Oc2c(-c3ccc(O)c(O)c3)oc3cc(O)cc(O)c3c2=O)O[C@H](CO[C@@H]2O[C@@H](C)[C@H](O)[C@@H](O)[C@H]2O)[C@@H](O)[C@@H]1O` gave an IC50 in assay [1] of 18 µM.
On the same count and under the same terms, to `C[C@@H]1O[C@@H](O[C@H]2[C@H](Oc3c(-c4ccc(O)c(O)c4)oc4cc(O)cc(O)c4c3=O)O[C@H](CO)[C@H](O)[C@@H]2O)[C@H](O)[C@H](O)[C@H]1O` belongs 18 µM; to `COc1cc(-c2oc3cc(O)cc(O)c3c(=O)c2O[C@@H]2O[C@H](CO[C@@H]3O[C@@H](C)[C@H](O)[C@@H](O)[C@H]3O)[C@@H](O)[C@H](O)[C@H]2OC(C)=O)ccc1O`, 9.8 µM.
Consider `CC(=O)Oc1ccccc1C(=O)O` [ASPIRIN], for which the inhibition at 100 µM in assay [3] is 15.8%. Moreover, the inhibition at 500 µM in assay [4] came to 39.4%. Also, in assay [5], the inhibition at 1000 µM is 53.5%.
`COc1cc(-c2oc3cc(O)cc(O)c3c(=O)c2O[C@@H]2O[C@@H](C)[C@H](O)[C@@H](O)[C@H]2O)ccc1O` gave an IC50 in assay [1] of 19 µM.

As a reminder, the IC50 is the concentration that gives 50% inhibition. As usually defined, the inhibition is the change of the read-out against control, counted positive when it falls. Read a high inhibition as strong suppression.
